Data taken from patent publication US20040018582A1, “Genes and gene products that confer susceptibility to vancomycin derivative antibiotics and methods and assays for identifying bifunctional glycopeptide antibiotics using same” (priority 2001, published 2004).
≈ marks a conversion by molar mass, not a printed value.

Key:
Type in all cases: cell-based, Escherichia coli
[1] = test system: mutant strain BE101; assay: MIC, standard microdilution in LB medium; details: 35° C., 22 hours
Protocol: (§1) The imp mutation alters the permeability of the outer membrane and confers sensitivity to vancomycin and its carbohydrate derivatives as well as to moenomycin. BE100 is an isolate of BAS849 (MC4100 ΔlamB106 imp 4213). B. A. Sampson et al., Genetics 122, 491(1989).
(§2) MICs were determined against strains grown in LB medium in a standard microdilution format.

[2] = test system: mutant strain BE102; assay: MIC, standard microdilution in LB medium; details: 35° C., 22 hours
Protocol: as §1, §2

[3] = test system: mutant strain BE103; assay: MIC, standard microdilution in LB medium; details: 35° C., 22 hours
Protocol: as §1, §2

[4] = test system: wild-type strain BE100 (E. coli imp); assay: MIC, standard microdilution in LB medium; details: 35° C., 22 hours
Protocol: as §1, §2

[5] = test system: mutant strains BE101, BE102, BE103 compared to wild-type BE100; assay: Comparison of antibiotic effectiveness in mutant (yfgL) strains versus wild-type strain; details: for resistance or sensitivity of the mutants: mutants vs parent strain BE100, by MIC
Protocol: The present inventions are directed to methods of identifying a compound having transglycosylase inhibitory activity. The method includes contacting the compound with cells having the wild type yfgL gene and then measuring the antibiotic effectiveness and contacting the compound with cells having the mutant yfgL gene and measuring the antibiotic effectiveness the compound.
as §2
Some antibiotics, for example the β-lactams, show a decrease in their bactericidal effectiveness against slow-growing cells. E. Tuomanen et al., J. Gen. Microbiol. 132, 1297 (1986). […] R. Kerns et al., J. Am. Chem. Soc. 122, 12608 (2000).
Examples of transpeptidase inhibitors include, but are not limited to, ampicillin, penicillin or cefoxitin (p-lactams). Compounds that inhibit cytoplasmic steps of peptidoglycan synthesis include, but are not limited to, fosfomycin and cycloserine.

[6] = test system: mutant strain BE101; assay: Time-kill curves at MIC; details: mutant BE101, vancomycin […]
Protocol: (§3) FIGS. 1C and 1D represent time-kill curves of wild-type BE100 (C) and mutant strain BE101 (D) in the presence of antibiotics at their MICs. A standard microdilution assay was performed in LB. Samples were removed and serial dilutions were plated onto antibiotic-free agar after 15, 30, 60, 120 and 240 minutes of exposure to each antibiotic.

[7] = test system: wild-type BE100; assay: Time-kill curves at MIC; details: wild-type BE100, vancomycin 0.8 μg/ml
Protocol: as §3

Compound	minimum inhibitory concentration (MIC) [1] [µg/mL]	minimum inhibitory concentration (MIC) [2] [µg/mL]	minimum inhibitory concentration (MIC) [3] [µg/mL]	minimum inhibitory concentration (MIC) [4] [µg/mL]	resistance or sensitivity of the mutants [5]	survival on exposure at MIC [6]	survival on exposure at MIC [7]	times less active in resistant strains compared to the wild-type strain ([5]; all three resistant strains vs wild-type)	step of peptidoglycan synthesis blocked, found using wild type/mutant yfgL assay [5]
CC1(C)S[C@@H]2[C@H](NC(=O)Cc3ccccc3)C(=O)N2[C@H]1C(=O)O [Penicillin G]	3.2 (≈ 9.57 µM)	1.6 (≈ 4.78 µM)	3.2 (≈ 9.57 µM)	3.2 (≈ 9.57 µM)					
CN[C@H](CC(C)C)C(=O)N[C@H]1C(=O)N[C@@H](CC(N)=O)C(=O)N[C@H]2C(=O)N[C@H]3C(=O)N[C@H](C(=O)N[C@H](C(=O)O)c4cc(O)cc(O)c4-c4cc3ccc4O)[C@H](O)c3ccc(c(Cl)c3)Oc3cc2cc(c3O[C@@H]2O[C@H](CO)[C@@H](O)[C@H](O)[C@H]2O[C@H]2C[C@](C)(N)[C@H](O)[C@H](C)O2)Oc2ccc(cc2Cl)[C@H]1O [Vancomycin]	1.6 (≈ 1.1 µM)	1.6 (≈ 1.1 µM)	1.6 (≈ 1.1 µM)	0.8 (≈ 0.552 µM)	did not show any resistance	prevented growth of all the strains but did not kill them	prevented growth of all the strains but did not kill them		
CC[C@H]1OC(=O)[C@H](C)[C@@H](O[C@H]2C[C@@](C)(OC)[C@@H](O)[C@H](C)O2)[C@H](C)[C@@H](O[C@@H]2O[C@H](C)C[C@H](N(C)C)[C@H]2O)[C@](C)(O)C[C@@H](C)C(=O)[C@H](C)[C@@H](O)[C@]1(C)O [erythromycin]					sensitive				
Desleucyl chlorobiphenyl vancomycin	>125	>125	>125	25					
Moenomycin	1.6	0.8	3.2	0.03				27-100 times	
Teicoplanin	16	3	4	0.25	resistant				block the transglycosylation step of peptidoglycan synthesis
gentamicin					sensitive				
